ChEMBL document CHEMBL2346657, “Synthesis of novel 2-amino-4-(5'-substituted 2'-phenyl-1H-indol-3'-yl)-6-aryl-4H-pyran-3-carbonitrile derivatives as antimicrobial and antioxidant agents” (2013)
Activity calls are given as the source filed them. The rule behind the calls is not given here.

Assays:
Type in all cases: functional
[1] = system: Aspergillus oryzae; assay: Antimicrobial activity against Aspergillus oryzae MTCC 3567 at 500 ug/ml after 72 hrs by cup plate method; settings: MTCC 3567, 72 h, read-out: IZ
[2] = system: Aspergillus flavus; assay: Antimicrobial activity against Aspergillus flavus MTCC 1973 at 750 ug/ml after 72 hrs by cup plate method; settings: MTCC 1973, 72 h, read-out: IZ
[3] = system: Escherichia coli; assay: Antimicrobial activity against Escherichia coli MTCC 723 at 500 ug/ml after 24 hrs by cup plate method; settings: MTCC 723, 24 h, read-out: IZ
[4] = system: Aspergillus oryzae; assay: Antimicrobial activity against Aspergillus oryzae MTCC 3567 at 750 ug/ml after 72 hrs by cup plate method; settings: MTCC 3567, 72 h, read-out: IZ
[5] = system: Aspergillus terreus; assay: Antimicrobial activity against Aspergillus terreus MTCC 1782 at 750 ug/ml after 72 hrs by cup plate method; settings: MTCC 1782, 72 h, read-out: IZ
[6] = system: Pseudomonas aeruginosa; assay: Antimicrobial activity against Pseudomonas aeruginosa MTCC 1688 at 750 ug/ml after 24 hrs by cup plate method; settings: MTCC 1688, 24 h, read-out: IZ
[7] = system: Staphylococcus aureus; assay: Antimicrobial activity against Staphylococcus aureus ATCC 29513 at 1000 ug/ml after 24 hrs by cup plate method; settings: ATCC 29513, 24 h, read-out: IZ
[8] = system: Aspergillus flavus; assay: Antimicrobial activity against Aspergillus flavus MTCC 1973 at 500 ug/ml after 72 hrs by cup plate method; settings: MTCC 1973, 72 h, read-out: IZ
[9] = system: Escherichia coli; assay: Antimicrobial activity against Escherichia coli MTCC 723 at 750 ug/ml after 24 hrs by cup plate method; settings: MTCC 723, 24 h, read-out: IZ
[10] = system: Aspergillus flavus; assay: Antimicrobial activity against Aspergillus flavus MTCC 1973 at 1000 ug/ml after 72 hrs by cup plate method; settings: MTCC 1973, 72 h, read-out: IZ
[11] = Antioxidant activity assessed as metal chelating activity by measuring inhibition of ferrozine-Fe2+ complex formation at 25 to 100 ug/ml
[12] = system: Escherichia coli; assay: Antimicrobial activity against Escherichia coli MTCC 723 at 1000 ug/ml after 24 hrs by cup plate method; settings: MTCC 723, 24 h, read-out: IZ
[13] = system: Aspergillus oryzae; assay: Antimicrobial activity against Aspergillus oryzae MTCC 3567 at 1000 ug/ml after 72 hrs by cup plate method; settings: MTCC 3567, 72 h, read-out: IZ
[14] = system: Klebsiella pneumoniae; assay: Antimicrobial activity against Klebsiella pneumoniae NCTC 13368 at 500 ug/ml after 24 hrs by cup plate method; settings: NCTC 13368, 24 h, read-out: IZ
[15] = system: Pseudomonas aeruginosa; assay: Antimicrobial activity against Pseudomonas aeruginosa MTCC 1688 at 500 ug/ml after 24 hrs by cup plate method; settings: MTCC 1688, 24 h, read-out: IZ
[16] = system: Aspergillus terreus; assay: Antimicrobial activity against Aspergillus terreus MTCC 1782 at 1000 ug/ml after 72 hrs by cup plate method; settings: MTCC 1782, 72 h, read-out: IZ
[17] = system: Staphylococcus aureus; assay: Antimicrobial activity against Staphylococcus aureus ATCC 29513 at 500 ug/ml after 24 hrs by cup plate method; settings: ATCC 29513, 24 h, read-out: IZ
[18] = system: Aspergillus terreus; assay: Antimicrobial activity against Aspergillus terreus MTCC 1782 at 500 ug/ml after 72 hrs by cup plate method; settings: MTCC 1782, 72 h, read-out: IZ
[19] = system: Aspergillus niger; assay: Antimicrobial activity against Aspergillus niger MTCC 281 at 1000 ug/ml after 72 hrs by cup plate method; settings: MTCC 281, 72 h, read-out: IZ
[20] = system: Klebsiella pneumoniae; assay: Antimicrobial activity against Klebsiella pneumoniae NCTC 13368 at 750 ug/ml after 24 hrs by cup plate method; settings: NCTC 13368, 24 h, read-out: IZ
[21] = system: Aspergillus niger; assay: Antimicrobial activity against Aspergillus niger MTCC 281 at 750 ug/ml after 72 hrs by cup plate method; settings: MTCC 281, 72 h, read-out: IZ
[22] = system: Aspergillus niger; assay: Antimicrobial activity against Aspergillus niger MTCC 281 at 500 ug/ml after 72 hrs by cup plate method; settings: MTCC 281, 72 h, read-out: IZ
[23] = system: Pseudomonas aeruginosa; assay: Antimicrobial activity against Pseudomonas aeruginosa MTCC 1688 at 1000 ug/ml after 24 hrs by cup plate method; settings: MTCC 1688, 24 h, read-out: IZ
[24] = system: Klebsiella pneumoniae; assay: Antimicrobial activity against Klebsiella pneumoniae NCTC 13368 at 1000 ug/ml after 24 hrs by cup plate method; settings: NCTC 13368, 24 h, read-out: IZ
[25] = system: Staphylococcus aureus; assay: Antimicrobial activity against Staphylococcus aureus ATCC 29513 at 750 ug/ml after 24 hrs by cup plate method; settings: ATCC 29513, 24 h, read-out: IZ

Structure (SMILES) | zone of inhibition at 500 µg/mL [1] [mm] | zone of inhibition at 750 µg/mL [2] [mm] | zone of inhibition at 500 µg/mL [3] [mm] | zone of inhibition at 750 µg/mL [4] [mm] | zone of inhibition at 750 µg/mL [5] [mm] | zone of inhibition at 750 µg/mL [6] [mm] | zone of inhibition at 1000 µg/mL [7] [mm] | zone of inhibition at 500 µg/mL [8] [mm] | zone of inhibition at 750 µg/mL [9] [mm] | zone of inhibition at 1000 µg/mL [10] [mm] | Activity [11] | zone of inhibition at 1000 µg/mL [12] [mm] | zone of inhibition at 1000 µg/mL [13] [mm] | zone of inhibition at 500 µg/mL [14] [mm] | zone of inhibition at 500 µg/mL [15] [mm] | zone of inhibition at 1000 µg/mL [16] [mm] | zone of inhibition at 500 µg/mL [17] [mm] | zone of inhibition at 500 µg/mL [18] [mm] | zone of inhibition at 1000 µg/mL [19] [mm] | zone of inhibition at 750 µg/mL [20] [mm] | also measured
Cc1ccc2[nH]c(-c3ccccc3)c(C3C=C(c4ccc(Cl)cc4)OC(N)=C3C#N)c2c1 (stereo not given) | 10 | 10 | 10 | 10 | 13 | 5 | 2 | 10 | 10 | 8 | Active | 10 | 10 | 9 | 6 | 13 | 6 | 12 | 10 | 9 | zone of inhibition at 750 µg/mL [21]: 10 mm; zone of inhibition at 500 µg/mL [22]: 10 mm; zone of inhibition at 1000 µg/mL [23]: 2 mm; zone of inhibition at 1000 µg/mL [24]: 8 mm; zone of inhibition at 750 µg/mL [25]: 5 mm
N#Cc1c(N)c2c(N)c3c(nc2oc1=O)OC(c1ccc(Cl)cc1)=CC3c1c(-c2ccccc2)[nH]c2ccccc12 (stereo not given) | 12 | 0 | 3 | 13 | 10 | 9 | 12 | 0 | 3 | 8 | Active | 12 | 13 | 13 | 10 | 11 | 12 | 10 | 5 | 13 | zone of inhibition at 750 µg/mL [21]: 5 mm; zone of inhibition at 500 µg/mL [22]: 7 mm; zone of inhibition at 1000 µg/mL [23]: 9 mm; zone of inhibition at 1000 µg/mL [24]: 13 mm; zone of inhibition at 750 µg/mL [25]: 11 mm
Cc1ccc2[nH]c(-c3ccccc3)c(C3C=C(c4ccccc4)Oc4[nH]c(=O)nc(N)c43)c2c1 (stereo not given) | 9 | 8 | 8 | 8 | 8 | 10 | 11 | 8 | 8 | 7 | Active | 8 | 5 | 6 | 10 | 9 | 11 | 8 | 10 | 5 | zone of inhibition at 750 µg/mL [21]: 9 mm; zone of inhibition at 500 µg/mL [22]: 10 mm; zone of inhibition at 1000 µg/mL [23]: 10 mm; zone of inhibition at 1000 µg/mL [24]: 5 mm; zone of inhibition at 750 µg/mL [25]: 11 mm
